# Results taken from ChEMBL document CHEMBL1240458, “Probing the binding site of curcumin in Escherichia coli and Bacillus subtilis FtsZ--a structural insight to unveil antibacterial activity of curcumin” (Eur J Med Chem, 2010).
# Activity calls are given as the source filed them. The calls are words filed in the database; no cut-off is given here.
# How the values were obtained:
# [1] = target: T1, Cell division protein FtsZ (Bacillus subtilis (strain 168), UniProt P17865); test: Inhibition of Bacillus subtilis FtsZ polymerization
# T1 sequence (P17865 whole entry): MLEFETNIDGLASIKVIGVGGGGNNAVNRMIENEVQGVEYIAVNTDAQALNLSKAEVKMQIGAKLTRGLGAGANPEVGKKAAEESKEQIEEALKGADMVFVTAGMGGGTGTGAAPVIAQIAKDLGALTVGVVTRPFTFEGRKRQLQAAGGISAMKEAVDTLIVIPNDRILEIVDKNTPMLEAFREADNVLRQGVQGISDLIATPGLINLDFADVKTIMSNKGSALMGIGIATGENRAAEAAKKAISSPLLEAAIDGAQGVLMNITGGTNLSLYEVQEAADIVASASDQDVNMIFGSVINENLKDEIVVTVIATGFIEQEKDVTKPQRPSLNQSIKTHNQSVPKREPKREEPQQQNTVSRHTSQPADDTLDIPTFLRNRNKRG
# [2] = system: Escherichia coli; test: Inhibition of Escherichia coli FtsZ polymerization
# [3] = Inhibition of FtsZ polymerization
# [4] = Inhibition of FtsZ GTPase
IC50 [1],inhibition [2],Compound,IC50 [3],IC50 [4]
30 µM,Active,COc1cc(/C=C/C(=O)CC(=O)/C=C/c2ccc(O)c(OC)c2)ccc1O [CURCUMIN],,
,,COC(=O)CC1Cc2cc3cc(OC)c(-c4c(OC)cc5cc6c(c(O)c5c4O)C(=O)OC(CC(=O)OC)C6)c(O)c3c(O)c2C(=O)O1 (centres undefined) [VIRIDITOXIN],8.2 µg/mL,7 µg/mL
